Experimental findings from patent US11896591B2, “Compositions and methods for preparing and using mitochondrial uncouplers” (UNIVERSITY OF VIRGINIA PATENT FOUNDATION, priority 2017, dated 2024) are described below.

This assay deals with whole cells. Briefly: Oxygen consumption rate (OCR) in whole cells, Seahorse XF-24 Flux Analyzer. The class given is cell-based. Particulars: binned EC50 values; increase in oxygen consumption rate in whole cells. As to the method:
Biological activities of the compounds synthesized is determined by determining increase in oxygen consumption rate (OCR).
OCR is measured using a Seahorse XF-24 Flux Analyzer (Seahorse Biosciences, North Billerica, MA). NMuLi, C2C12, and L6 cells are seeded in a Seahorse 24-well tissue culture plate at a density of 3.5×10^4 cells/well, isolated cardiomyocytes at a density of 4×10^4 cells/well, and human primary fibroblasts at a density of 1.1×10^4 cells/well. The cells are then allowed to adhere for 24 h. […] Compounds are injected during the assay and OCR is measured using 2 min measurement periods.
2-3 wells are used per condition and averaged over three plates (n=6-9). Statistical significance is determined by two-way ANOVA with Bonferroni's posttest.
What is called EC50 is the concentration that produces a half-maximal response. As for `FC(F)(F)Oc1ccc(Nc2nccnc2Nc2ccc(OC(F)(F)F)cc2)cc1` [Compound 16n, N^2,N^3-bis(4-(trifluoromethoxy)phenyl)pyrazine-2,3-diamine], the EC50 is less than 5 µM.

Compound `Cn1c(C(F)(F)F)nc2nc(Nc3ccccc3F)c(NCCC(F)(F)F)nc21` [Compound 13x, 1-Methyl-N^5-(2-fluorophenyl)-N^6-3,3,3-trifluoropropyl-2-(trifluoromethyl)-imidazo[4,5-b]pyrazine-5,6-diamine] gave an EC50 greater than 20 µM. Take `Cn1c(C(F)(F)F)nc2nc(Nc3ccc(OC(F)(F)F)cc3)c(Nc3ccc(OC(F)(F)F)cc3)nc21` [Compound 13m, 1-Methyl-N^5,N^6-bis(4-(trifluoromethoxy)phenyl)-2-(trifluoromethyl)-imidazo[4,5-b]pyrazine-5,6-diamine]: the EC50 is 5 to 20 µM. In turn, `COc1ccc(Nc2nc3c(nc2Nc2ccccc2F)nc(C(F)(F)F)n3C)cc1` [Compound 13r, 1-Methyl-N^5-(2-fluorophenyl)-N^6-(4-methoxyphenyl)-2-(trifluoromethyl)-imidazo[4,5-b]pyrazine-5,6-diamine] gave an EC50 greater than 20 µM. In turn, `Fc1ccccc1Nc1nc2nc(C(F)(F)F)[nH]c2nc1Nc1ccccc1F` [Compound 12a, N^5,N^6-bis(2-fluorophenyl)-2-(trifluoromethyl)-1H-imidazo[4,5-b]pyrazine-5,6-diamine] had an EC50 of 5 to 20 µM.

Turning to `Fc1ccccc1Nc1nc2nsnc2nc1Nc1ccccc1F` [Compound 10, N^5,N^6-bis(2-fluorophenyl)-[1,2,5]thiadiazolo[3,4-b]pyrazine-5,6-diamine], the EC50 lay within 5 to 20 µM. The compound `CNc1nc2nonc2nc1Nc1ccccc1F` [Compound 7a, N^5-(2-fluorophenyl)-N^6-methyl-[1,2,5]oxadiazolo[3,4-b]pyrazine-5,6-diamine] registered an EC50 of 5 to 20 µM.

`Fc1ccccc1Nc1nc2nonc2nc1Nc1cccc(C(F)(F)F)c1F` [Compound 4bb, N^5-(2-fluoro-3-(trifluoromethyl)phenyl)-N^6-(2-fluorophenyl)-[1,2,5]oxadiazolo[3,4-b]pyrazine-5,6-diamine] yielded an EC50 of less than 5 µM. With `Fc1ccccc1Nc1nc2nc(C(F)(F)F)[nH]c2nc1Nc1cc(C(F)(F)F)cc(C(F)(F)F)c1` [Compound 12q, N^5-(2-fluorophenyl)-N^6-(3,5-bis(trifluoromethyl)phenyl)-2-(trifluoromethyl)-1H-imidazo[4,5-b]pyrazine-5,6-diamine], the EC50 fell in the range of 5 to 20 µM. The compound `CCCNc1nc2[nH]c(C(F)(F)F)nc2nc1Nc1ccccc1F` [Compound 12w, N^5-(2-fluorophenyl)-N^6-propyl-2-(trifluoromethyl)-1H-imidazo[4,5-b]pyrazine-5,6-diamine] had an EC50 greater than 20 µM. On to `Cn1c(C(F)(F)F)nc2nc(Nc3cccc(F)c3F)c(Nc3cccc(F)c3F)nc21` [Compound 13j, N^5,N^6-bis(2,3-difluorophenyl)-1-methyl-2-(trifluoromethyl)-imidazo[4,5-b]pyrazine-5,6-diamine], for which the EC50 was greater than 20 µM. Take `FC(F)(F)c1cccc(Nc2nccnc2Nc2cccc(C(F)(F)F)c2)c1` [Compound 16b, N^2,N^3-bis(3-(trifluoromethyl)phenyl)pyrazine-2,3-diamine]: the EC50 is less than 5 µM. With `Cn1c(C(F)(F)F)nc2nc(Nc3ccccc3F)c(Nc3cc(C(F)(F)F)cc(C(F)(F)F)c3)nc21` [Compound 13q, 1-Methyl-N^5-(2-fluorophenyl)-N^6-(3,5-bis(trifluoromethyl)phenyl)-2-(trifluoromethyl)-imidazo[4,5-b]pyrazine-5,6-diamine], the EC50 was greater than 20 µM.

`Fc1ccccc1Nc1nc2nc(C(F)(F)F)[nH]c2nc1Nc1ccc(OC(F)(F)F)cc1` [Compound 12p, N^5-(2-fluorophenyl)-N^6-(4-(trifluoromethoxy)phenyl)-2-(trifluoromethyl)-1H-imidazo[4,5-b]pyrazine-5,6-diamine] returned an EC50 of less than 5 µM.

In turn, `FC(F)(F)c1nc2nc(Nc3ccccc3)c(Nc3ccccc3)nc2[nH]1` [Compound 12l, N^5,N^6-diphenyl-2-(trifluoromethyl)-1H-imidazo[4,5-b]pyrazine-5,6-diamine] gave an EC50 greater than 20 µM. With `Cn1c(C(F)(F)F)nc2nc(Nc3ccc(C(F)(F)F)c(F)c3)c(Nc3ccc(C(F)(F)F)c(F)c3)nc21` [Compound 13h, N^5,N^6-bis(3-fluoro-4-(trifluoromethyl)phenyl)-1-methyl-2-(trifluoromethyl)-imidazo[4,5-b]pyrazine-5,6-diamine], the EC50 was greater than 20 µM.

For `COc1cccc(Nc2nc3nonc3nc2Nc2cccc(OC)c2)c1` [Compound 3e, N^5,N^6-bis(3-methoxyphenyl)-[1,2,5]oxadiazolo[3,4-b]pyrazine-5,6-diamine], the EC50 is greater than 20 µM. In turn, `Fc1ccccc1Nc1nc2nonc2nc1Nc1ccc(C(F)(F)F)cc1` [Compound 4w, N^5-(2-fluorophenyl)-N^6-(4-(trifluoromethyl)phenyl)-[1,2,5]oxadiazolo[3,4-b]pyrazine-5,6-diamine] showed an EC50 of less than 5 µM. Compound `FC(F)(F)c1ccc(Nc2nccnc2Nc2ccc(C(F)(F)F)cc2)cc1` [Compound 16c, N^2,N^3-bis(4-(trifluoromethyl)phenyl)pyrazine-2,3-diamine] displayed a half-maximal effective concentration (EC50) of less than 5 µM. `Fc1cc(C(F)(F)F)ccc1Nc1nc2nc(C(F)(F)F)[nH]c2nc1Nc1ccc(C(F)(F)F)cc1F` [Compound 12g, N^5,N^6-bis(2-fluoro-4-(trifluoromethyl)phenyl)-2-(trifluoromethyl)-1H-imidazo[4,5-b]pyrazine-5,6-diamine] had an EC50 of less than 5 µM. `FC(F)(F)Oc1ccccc1Nc1nc2nonc2nc1Nc1ccccc1OC(F)(F)F` [Compound 3k, N^5,N^6-bis(2-(trifluoromethoxy)phenyl)-[1,2,5]oxadiazolo[3,4-b]pyrazine-5,6-diamine] came in with an EC50 of less than 5 µM. For `CCCNc1nc2nonc2nc1Nc1ccccc1F` [Compound 7c, N^5-(2-fluorophenyl)-N^6-propyl-[1,2,5]oxadiazolo[3,4-b]pyrazine-5,6-diamine], the EC50 lay in the range of 5 to 20 µM. On to `Cc1ccc(Nc2nc3nonc3nc2Nc2ccc(C)cc2)cc1` [Compound 3c, N^5,N^6-di-p-tolyl-[1,2,5]oxadiazolo[3,4-b]pyrazine-5,6-diamine], for which the EC50 was 5 to 20 µM.

`COC(=O)c1ccc(Nc2nc3nonc3nc2Nc2ccc(C(=O)OC)cc2)cc1` [Compound 3t, Dimethyl 4,4′-([1,2,5]oxadiazolo[3,4-b]pyrazine-5,6-diylbis(azanediyl))dibenzoate]: the EC50 is less than 5 µM. For `O=C(Nc1ccc(Nc2nc3nonc3nc2Nc2ccccc2F)cc1)C(F)(F)F` [Compound 4t, 2,2,2-Trifluoro-N-(4-((6-((2-fluorophenyl)amino)-[1,2,5]oxadiazolo[3,4-b]pyrazin-5-yl)amino)phenyl)acetamide] the value was less than 5 µM; for `Cn1c(C(F)(F)F)nc2nc(Nc3cc(F)cc(F)c3)c(Nc3cc(F)cc(F)c3)nc21` [Compound 13i, N^5,N^6-bis(3,5-difluorophenyl)-1-methyl-2-(trifluoromethyl)-imidazo[4,5-b]pyrazine-5,6-diamine], 5 to 20 µM.

In the case of `Fc1ccc(C(F)(F)F)cc1Nc1nc2nonc2nc1Nc1cc(C(F)(F)F)ccc1F` [Compound 3y, N^5,N^6-bis(2-fluoro-5-(trifluoromethyl)phenyl)-[1,2,5]oxadiazolo[3,4-b]pyrazine-5,6-diamine], the EC50 was less than 5 µM. Turning to `Fc1ccc(Nc2nc3nonc3nc2Nc2ccccc2F)c(F)c1` [Compound 4f, N^5-(2,4-difluorophenyl)-N^6-(2-fluorophenyl)-[1,2,5]oxadiazolo[3,4-b]pyrazine-5,6-diamine], the EC50 was less than 5 µM. Turning to `Fc1cccc(Nc2nc3nc(C(F)(F)F)[nH]c3nc2Nc2cccc(F)c2F)c1F` [Compound 12j, N^5,N^6-bis(2,3-difluorophenyl)-2-(trifluoromethyl)-1H-imidazo[4,5-b]pyrazine-5,6-diamine], the EC50 was less than 5 µM. For `Fc1ccccc1Nc1nc2nonc2nc1Nc1ccccc1OC(F)(F)F` [Compound 4q, N^5-(2-fluorophenyl)-N^6-(2-(trifluoromethoxy)phenyl)-[1,2,5]oxadiazolo[3,4-b]pyrazine-5,6-diamine] the value was less than 5 µM.

Compound `FC(F)(F)c1cc(Nc2nccnc2Nc2cc(C(F)(F)F)cc(C(F)(F)F)c2)cc(C(F)(F)F)c1` [Compound 16f, N^2,N^3-bis(3,5-bis(trifluoromethyl)phenyl)pyrazine-2,3-diamine] registered an EC50 of 5 to 20 µM. For `Fc1cc(Nc2nc3nonc3nc2Nc2ccc(C(F)(F)F)c(F)c2)ccc1C(F)(F)F` [Compound 3x, N^5,N^6-bis(3-fluoro-4-(trifluoromethyl)phenyl)-[1,2,5]oxadiazolo[3,4-b]pyrazine-5,6-diamine] the value was less than 5 µM; for `Fc1ccc(Nc2nc3nonc3nc2Nc2ccccc2F)cc1` [Compound 4d, N^5-(2-fluorophenyl)-N^6-(4-fluorophenyl)-[1,2,5]oxadiazolo[3,4-b]pyrazine-5,6-diamine], less than 5 µM. The figure for `Cn1c(C(F)(F)F)nc2nc(Nc3ccc(OC(F)(F)F)c(F)c3)c(Nc3ccc(OC(F)(F)F)c(F)c3)nc21` [Compound 13f, N^5,N^6-bis(3-fluoro-4-(trifluoromethoxy)phenyl)-1-methyl-2-(trifluoromethyl)-imidazo[4,5-b]pyrazine-5,6-diamine] is 5 to 20 µM. With `Fc1ccccc1Nc1nc2nonc2nc1Nc1ccc(OC(F)(F)F)cc1` [Compound 4s, N^5-(2-fluorophenyl)-N^6-(4-(trifluoromethoxy)phenyl)-[1,2,5]oxadiazolo[3,4-b]pyrazine-5,6-diamine], the EC50 was less than 5 µM. As for `Oc1ccc(F)c(Nc2nc3nonc3nc2Nc2ccccc2F)c1` [Compound 4z, 4-Fluoro-3-((6-((2-fluorophenyl)amino)-[1,2,5]oxadiazolo[3,4-b]pyrazin-5-yl)amino)phenol], the EC50 was greater than 20 µM.
